{
  "source": "patent US3930838A",
  "about": "“S-benzyl-N,N-disec-butylthiocarbamate and its use as a rice field herbicide and a rice growth stimulant” (priority 1970, dated 1976)",
  "key": {"[1]": {"assay": "Solubility and volatility", "type": "physicochemical"}, "Barnyard grass": {"tested_on": "Barnyard grass", "assay": "Rice seed treatment, 5000 square meter field plots, test No. 3, barnyard grass (Example 17)", "type": "in vivo", "conditions": "67 days; for Barnyard grass tiller number: single 1 m^2 testing area", "description": "A further test was carried out outdoors on loam soil on plots of about 5000 square meters surface.\nAfter flooding each plot, seeds treated as in Test No. […] In all cases, the seen quantity was 150 kg./ha. 67 days after sowing, the results were gathered on 5 representative testing areas of 1 square meter each for each dosage level."}, "rice [2]": {"tested_on": "rice", "assay": "Stimulating action on rice, general statement", "conditions": "in vivo"}, "rice [3]": {"tested_on": "rice", "assay": "Outdoor comparison of rice stimulating action of M3432 with lower homologues and isomers (Example 11)", "type": "in vivo", "conditions": "21 days after sowing", "description": "In the province of Pavia, a test was carried out with outdoor treatments in a loam soil, on rice plots having a 12 m^2 surface each.\nFormulations of 20% M3432 in emulsifiable oil were compared with 20% formulations in emulsifiable oil of S-benzyl-N,N-diisopropyl thiocarbamate; S-benzyl-N,N-diisobutylthiocarbamate; and S-benzyl-N,N-din.butylthiocarbamate employing quantities of 4, 6 and 20 kg./ha.\nFor each treatment, the results were gathered on 20 plants 21 days after the sowing."}, "Echinocloa spp.": {"tested_on": "Echinocloa spp.", "assay": "Post emergence hothouse test No. 1 (Example 16)", "type": "in vivo", "conditions": "4, 6, and 8 kg./ha., 3 days; plants 3-4 cm. at treatment", "description": "A set of boxes having a 1,000 cm^2 internal surface was prepared in a hothouse according to the method described in Example 9. The boxes were sowed with Echinocloa spp. (70 seeds per box). After saturation of the soil, and as soon as the infesting plants emerged from the soil, the boxes were flooded with a 7 cm. layer of water. When the plants reached a maximum height of 3-4 cm., the treatment was effected by spraying the flooding water surfaces with hydroacetone solutions according to the modalities employed in Example 9. 3 days after the treatment, the following results were observed: […]"}, "rice [4]": {"tested_on": "rice", "assay": "Hothouse test on rice in flooded boxes, 27 days (Example 9a)", "type": "in vivo, rice cv. RIBE", "source_text": "A test was arranged in a hothouse on a set of boxes having a 1,000 cm^2 internal surface. 18 Kg. of sieved rice field earth were put into each box. After leveling, the earth surfaces of each of a set of six boxes were uniformly sprayed with hydroacetone solutions containing, respectively, 0, 0.5, 0.75, 1, 1.25, and 1.5% of M3432. 20 Cc. of solution was sprayed into each box, corresponding to 0, 10, 15, 20, 25, and 30 kg./ha., respectively. Each box was flooded with a 10 cm. water layer measured from the earth surface. The sowing was carried out immediately afterwards with a pre-germinated (cv) RIBE rice seed, employing a quantity of 40 seeds per box.\nDuring the test, the hothouse temperature ranged from +10°to +28°C. 27 Days after the treatment, all the rice plants were recovered from each box and subjected to biometric controls."}, "grass (Echinocloa spp.)": {"tested_on": "grass (Echinocloa spp.)", "assay": "Residual activity, second sowing with grass 24 days after treatment (Example 14)", "type": "in vivo", "conditions": "additional 24 days", "description": "The same method described in Example 9 was followed, the only variation being in sowing Echinocloa spp. (40 slightly pregerminated seeds per box) instead of rice.\nAfter the Echinocloa spp. plants were killed, a second sowing with grass was carried out in the same boxes, 24 days after the treatment, employing 20 slightly pre-germinated seeds per box."}, "rice [5]": {"tested_on": "rice", "assay": "Post emergence outdoor plot test No. 3, rice (Example 16)", "type": "in vivo", "conditions": "45 days, emulsifiable oil", "description": "Some plots, 12 m^2 each, delimited by artificial levees, were prepared outdoors. AFter soil working and grading, the plots were sowed with Echinocloa spp. on May 18, 1970 and then flooded to a height of 10 cm. with water on May 20, 1970. The same day, rice was sowed in quantities corresponding to 150 kg. of seed per ha. Both rice and Echinocloa emerged from the soil 5 days after the flooding.\nWhen the barnyard grass reached an average height of 12-14 cm., the treatment was effected by uniformly spraying the flooded water surface.\nProducts being tested: M3432 and molinate, in emulsifiable oil base.\nDoses: 0, 4, and 6 kg./ha.\nThe first effects on Echinocloa spp. were noticed for both products 7 days after treatment, 45 Days after treatment the following was observed: […]"}},
  "data": [
    {"smiles": "CCC(C)N(C(=O)SCc1ccccc1)C(C)CC", "note": "(stereo not drawn) [M3432, S-benzyl-N,N-disec.butylthiocarbamate]", "values": [
      {"measurement": "Volatility", "setting": "[1]", "result": "not volatile"},
      {"measurement": "Solubility in organic solvents", "setting": "[1]; benzene, ether, heptane, methanol, cyclohexanone, acetone, methyl chloride, dichloroethane", "result": "soluble"},
      {"measurement": "Solubility in water", "setting": "[1]; water", "result": "practically insoluble"},
      {"measurement": "Barnyard grass tiller number", "setting": "Barnyard grass; 3.4 kg./ha.", "result": "0 (no.)/m^2"},
      {"measurement": "Barnyard grass tiller number, average on 5 testing areas", "setting": "Barnyard grass; 3.6 kg./ha.", "result": "0 (no.)/m^2"},
      {"measurement": "Barnyard grass tiller number, average on 5 testing areas", "setting": "Barnyard grass; 4.0 kg./ha.", "result": "0 (no.)/m^2"},
      {"measurement": "Barnyard grass tiller number", "setting": "Barnyard grass; 4.0 kg./ha.", "result": "0 (no.)/m^2"},
      {"measurement": "Malformations of rice", "setting": "rice [2]", "result": "no malformations are noticed"},
      {"measurement": "Main roots", "setting": "rice [3]; 4 kg./ha.", "result": 5.55, "unit": "No."},
      {"measurement": "Secondary roots", "setting": "rice [3]; 4 kg./ha.", "result": 2.52, "unit": "No."},
      {"measurement": "Shoot", "setting": "rice [3]; 4 kg./ha.", "result": 7.11, "unit": "cm."},
      {"measurement": "Main roots", "setting": "rice [3]; 6 kg./ha.", "result": 5.73, "unit": "No."},
      {"measurement": "Secondary roots", "setting": "rice [3]; 6 kg./ha.", "result": 2.63, "unit": "No."},
      {"measurement": "Shoot", "setting": "rice [3]; 6 kg./ha.", "result": 7.34, "unit": "cm."},
      {"measurement": "Main roots", "setting": "rice [3]; 20 kg./ha.", "result": 6.76, "unit": "No."},
      {"measurement": "Secondary roots", "setting": "rice [3]; 20 kg./ha.", "result": 2.63, "unit": "No."},
      {"measurement": "Shoot", "setting": "rice [3]; 20 kg./ha.", "result": 7.68, "unit": "cm."},
      {"measurement": "Shoot", "setting": "Echinocloa spp.", "result": 0, "unit": "cm."},
      {"measurement": "Stand", "setting": "Echinocloa spp.", "result": 0, "unit": "%"},
      {"measurement": "Main root", "setting": "rice [4]; 10 kg./ha.", "result": 4.82, "unit": "cm."},
      {"measurement": "Main root, % of control", "setting": "rice [4]; 10 kg./ha.", "result": "150 % of control"},
      {"measurement": "Secondary roots", "setting": "rice [4]; 10 kg./ha.", "result": 2.82, "unit": "No."},
      {"measurement": "Secondary roots, % of control", "setting": "rice [4]; 10 kg./ha.", "result": "127 % of control"},
      {"measurement": "Shoot", "setting": "rice [4]; 10 kg./ha.", "result": 11.70, "unit": "cm."},
      {"measurement": "Shoot, % of control", "setting": "rice [4]; 10 kg./ha.", "result": "198 % of control"},
      {"measurement": "Sprouted plants", "setting": "rice [4]; 10 kg./ha.", "result": 52.5, "unit": "%"},
      {"measurement": "Sprouted plants, % of control", "setting": "rice [4]; 10 kg./ha.", "result": "131 % of control"},
      {"measurement": "Main root", "setting": "rice [4]; 15 kg./ha.", "result": 4.06, "unit": "cm."},
      {"measurement": "Main root, % of control", "setting": "rice [4]; 15 kg./ha.", "result": "131 % of control"},
      {"measurement": "Secondary roots", "setting": "rice [4]; 15 kg./ha.", "result": 2.95, "unit": "No."},
      {"measurement": "Secondary roots, % of control", "setting": "rice [4]; 15 kg./ha.", "result": "133 % of control"},
      {"measurement": "Shoot", "setting": "rice [4]; 15 kg./ha.", "result": 11.99, "unit": "cm."},
      {"measurement": "Shoot, % of control", "setting": "rice [4]; 15 kg./ha.", "result": "203 % of control"},
      {"measurement": "Sprouted plants", "setting": "rice [4]; 15 kg./ha.", "result": 57.5, "unit": "%"},
      {"measurement": "Sprouted plants, % of control", "setting": "rice [4]; 15 kg./ha.", "result": "144 % of control"},
      {"measurement": "Main root", "setting": "rice [4]; 20 kg./ha.", "result": 8.29, "unit": "cm."},
      {"measurement": "Main root, % of control", "setting": "rice [4]; 20 kg./ha.", "result": "267 % of control"},
      {"measurement": "Secondary roots", "setting": "rice [4]; 20 kg./ha.", "result": 4.42, "unit": "No."},
      {"measurement": "Secondary roots, % of control", "setting": "rice [4]; 20 kg./ha.", "result": "199 % of control"},
      {"measurement": "Shoot", "setting": "rice [4]; 20 kg./ha.", "result": 12.15, "unit": "cm."},
      {"measurement": "Shoot, % of control", "setting": "rice [4]; 20 kg./ha.", "result": "205 % of control"},
      {"measurement": "Sprouted plants", "setting": "rice [4]; 20 kg./ha.", "result": 77.5, "unit": "%"},
      {"measurement": "Sprouted plants, % of control", "setting": "rice [4]; 20 kg./ha.", "result": "193 % of control"},
      {"measurement": "Main root", "setting": "rice [4]; 25 kg./ha.", "result": 6.77, "unit": "cm."},
      {"measurement": "Main root, % of control", "setting": "rice [4]; 25 kg./ha.", "result": "218 % of control"},
      {"measurement": "Secondary roots", "setting": "rice [4]; 25 kg./ha.", "result": 4.66, "unit": "No."},
      {"measurement": "Secondary roots, % of control", "setting": "rice [4]; 25 kg./ha.", "result": "210 % of control"},
      {"measurement": "Shoot", "setting": "rice [4]; 25 kg./ha.", "result": 16.77, "unit": "cm."},
      {"measurement": "Shoot, % of control", "setting": "rice [4]; 25 kg./ha.", "result": "283 % of control"},
      {"measurement": "Sprouted plants", "setting": "rice [4]; 25 kg./ha.", "result": 85.0, "unit": "%"},
      {"measurement": "Sprouted plants, % of control", "setting": "rice [4]; 25 kg./ha.", "result": "212 % of control"},
      {"measurement": "Main root", "setting": "rice [4]; 30 kg./ha.", "result": 8.84, "unit": "cm."},
      {"measurement": "Main root, % of control", "setting": "rice [4]; 30 kg./ha.", "result": "285 % of control"},
      {"measurement": "Secondary roots", "setting": "rice [4]; 30 kg./ha.", "result": 4.90, "unit": "No."},
      {"measurement": "Secondary roots, % of control", "setting": "rice [4]; 30 kg./ha.", "result": "220 % of control"},
      {"measurement": "Shoot", "setting": "rice [4]; 30 kg./ha.", "result": 14.59, "unit": "cm."},
      {"measurement": "Shoot, % of control", "setting": "rice [4]; 30 kg./ha.", "result": "246 % of control"},
      {"measurement": "Sprouted plants", "setting": "rice [4]; 30 kg./ha.", "result": 87.5, "unit": "%"},
      {"measurement": "Sprouted plants, % of control", "setting": "rice [4]; 30 kg./ha.", "result": "219 % of control"},
      {"measurement": "Shoot", "setting": "grass (Echinocloa spp.); 2 kg./ha.", "result": 26.5, "unit": "cm."},
      {"measurement": "Stand", "setting": "grass (Echinocloa spp.); 2 kg./ha.", "result": 100, "unit": "%"},
      {"measurement": "Shoot", "setting": "grass (Echinocloa spp.); 4 kg./ha.", "result": 27.0, "unit": "cm."},
      {"measurement": "Stand", "setting": "grass (Echinocloa spp.); 4 kg./ha.", "result": 65, "unit": "%"},
      {"measurement": "Shoot", "setting": "grass (Echinocloa spp.); 6 kg./ha.", "result": 0, "unit": "cm."},
      {"measurement": "Stand", "setting": "grass (Echinocloa spp.); 6 kg./ha.", "result": 0, "unit": "%"},
      {"measurement": "Shoot", "setting": "grass (Echinocloa spp.); 8 kg./ha.", "result": 0, "unit": "cm."},
      {"measurement": "Stand", "setting": "grass (Echinocloa spp.); 8 kg./ha.", "result": 0, "unit": "%"}
    ]},
    {"smiles": "CCSC(=O)N1CCCCCC1", "note": "[Molinate, ethyl-1-hexamethylene-imino-carbothiolate, reference compound]", "values": [
      {"measurement": "Effect on rice", "setting": "rice [5]; 4 kg./ha.", "result": "Stronger than the control"},
      {"measurement": "Effect on rice", "setting": "rice [5]; 6 kg./ha.", "result": "Stronger than the control"}
    ]}
  ]
}
